Where a name gives a salt, the structure may show the parent alone.
Assays:
aged mice (C57BL/6J) = assay: Treadmill test of muscle strength (endurance) in aged mice; assay type: in vivo, mouse; details: vs PBS
Text: To confirm that muscle strength decline would be observed in model mice (C57BL/6J) (purchased from ORIENTAL YEAST), muscle strength (endurance) in 79-week-old aged mice was checked in a treadmill test as follows.
Before recording performance, the mice were trained for three days so as to become familiarized with the equipment. An electrical stimulation grid was adjusted to 1 mA and the gradient was set to 15 degrees. On the first day of training, the mice were made to walk on the treadmill for 10 min at a speed of 10 m/min, rest for 10 min, and then walk for 10 min at a speed of 10 m/min. On the second and third days, the first two steps were performed under the same conditions as on the first day, after which walking was started at 10 m/min, and then increasing the speed by 1 m/min each minute up to a maximum speed of 20 m/min. Maximum exercise endurance was measured on the fourth day. Six mice were placed on the treadmill and the belt speed was started at 5 m/min for 5 min to warm up the mice. The speed was increased by 1 m/min to a maximum of 20 m/min. After 5 minutes of running, the speed was increased from 20 m/min to 21 m/min for 10 minutes. The mice were then forced to run at 22 m/min until they remained on the electrical stimulation grid for 10 seconds, and the distance they ran until they remained for 10 seconds was measured. […]

[1] = Body weight and behaviour observed during the administration period; assay type: in vivo, mouse
Procedure: L-ethylcysteine hydrochloride was orally administered to aged mice from 40 to 79 weeks of age. The dose was 1000 mg/kg/day.
Ambroxol hydrochloride was orally administered to aged mice from 50 to 77 weeks of age. The dose was 9.21 mg/kg/day.

[2] = system: gene expression in (gastrocnemius or soleus) muscle; assay: Genetic analysis (RNA-seq) of muscle of administered aged mice; assay type: in vivo, mouse; details: FDR <0.05
Text: The procedure and reagents used are as follows. The quality of all reads was checked using FastQC v0.11.8 and low-quality reads were removed using Trimmomatic (ver 0.38). LEADING: 20 (cut bases off the start of a read if quality score is less than 20), TRAILING: 20, SLIDING WINDOW: 4:15 (window size 4, average quality 15), MINLEN: 36 (drop reads if the length is less than […]) Each read obtained after filtering was mapped to the reference genome GRCm38 using STAR (ver2.7.0.f). Mapping was performed using the default values of STAR. Since the reads were paired-end with a length of 150 bp, a STAR index for reference genome GRCm38 was created in accordance with the length of 150 to perform mapping. Index generation was performed as follows: • Run Mode; genomeGenerate • Reference; GRCm38 • Annotation file; genecode version M24 • sjdbOverhang; 150 • alignment was performed using the index generated above. • Other than the foregoing, no options were added and the default values were used. • (Basic options were as follows.) • genomeDir; index generated above […] At this time, gene symbols as defined in genecode version M24 were counted. Regarding the calculated count numbers, genes with count data of 0 in all samples were filtered, TMM normalization was performed using edgeR (ver3.22.3), and correction between samples was performed. First, to obtain an overview of the data, principal component analysis and clustering analysis were performed using the count data after removing low-expressing genes. Expression changes of the specified patterns were compared based on the obtained expression values. edgeR was used to test for differentially expressed genes. […] Gene enrichment analysis was performed on the obtained variable genes using gprofiler2 (version 0.1.6). The expression values of the obtained differentially expressed genes were normalized, then extracted and visually depicted as a heat map to confirm the differential expressions. […] This analysis was performed using […] 1.8.0). In […], analysis was performed using a mouse database relating to 10 kbp upstream the TSS, stored in […]. Details of the analysis are as follows (cited from https://scenic.aertslab.org/tutorials/[…]). In the present example, gene regulation involved in the ambroxol hydrochloride of the present invention was investigated using model mice to identify genes useful for the diagnosis and treatment of sarcopenia, in the same manner as in Example 1. […] From the analysis of upstream transcription factors shown in FIG. 12, new transcription factors involved in differentiation and cellular senescence were observed as upstream factors.

aged mice [3] = assay: Contextual fear conditional (CFC) test of fear memory; assay type: in vivo, mouse; details: 77-week-old aged mice after ambroxol hydrochloride administration; vs PBS; FIG. 8
Procedure: Cognition and memory of the 77-week-old aged mice of Example 2-2 were evaluated by means of a contextual fear conditional (CFC) test. In the cognition and memory experiment, memory is evaluated in two ways: fear memory and spatial memory; fear memory is evaluated based on the time the subject freezes and stops moving after receiving an electric shock. […] Regarding spatial memory, when a mouse is placed on a white disk and a strong light is illuminated thereon, the mouse, which is nocturnal, will try to escape to a dark place. The disk has 20 holes, of which 19 are blocked and only one through which escape is possible. The mouse is then trained for six days to memorize the location of that one hole. The degree to which the mouse could remember the location of the hole was evaluated one day later and one week later (reference: https://www.nature.com/protocolexchange/protocols/349Reiserer).
In this example, fear memory was evaluated using the CFC test. Fear memory was assessed by CFC after administration of ambroxol hydrochloride to 77-week-old, aged mice of Example 2-2.

C2C12 cells = assay: Gene expression in cultured C2C12 cells, treated versus untreated; assay type: cell-based, mouse; details: treated vs untreated cells; Q<0.05; FIG. 13
Procedure: C2C12 cells, which are derived from striated muscle of mice, were cultured and treated with ambroxol hydrochloride.

model mice (C57BL/6J) [4] = assay: Frailty index test; assay type: in vivo, mouse
Procedure: The above model mice were orally administered 1000 mg/kg/day of ambroxol hydrochloride from 50 to 81 weeks of age, and frailty associated with aging was confirmed by means of a frailty index test. The evaluated items of the frailty index test are as follows, and an evaluation standard in accordance with clinical symptoms (0=no symptoms, 0.5=mild symptoms, 1=severe symptoms) was employed. • Hair, skin • Alopecia Whether there is hair loss • Loss of fur color Change in fur color from black to gray, brown, or white • Dermatitis Whether there is skin inflammation • Loss of whiskers Loss of hair and whiskers around nose • Coat condition Condition of coat, smoothness and shine of fur • Physical/musculoskeletal • Tumors Presence/absence of tumor • Distended abdomen Abdomen enlarged compared to surrounding • Kyphosis Check by stroking back • Tail stiffening Whether tail wraps freely when stroked, stiffness • Gait disorder Difficulty in walking, wide stance • Tremor Whether there are age-related tremors • Forelimb grip strength Strength of grip on wire mesh when pulled by the tail • Body condition score Check visual signs of bony protuberance, muscle wasting, obesity • Vestibulocochlear/auditory • Vestibular disturbance Balance, orientation, acceleration • Hearing loss Whether there is response when clicker is sounded from behind • Ocular/nasal • Cataracts Clouding of lens of eye • Corneal opacity Cloudy cornea • Eye discharge/swelling Eyes swollen, abnormal secretions or crusting • Microphthalmia One or both eyes are small and/or sunken • Vision loss Whether the mouse reaches toward the ground when lowered by the tail (also use a ruler) • Menace reflex Whether there is response when foreign object is brought near eyes • Nasal discharge Whether there is nasal discharge • Digestive/urogenital • Malocclusion Whether there are malocclusions or overgrown teeth • Rectal prolapse Whether there is protrusion of rectum • Vaginal/uterine/penile prolapse Check genitals • Diarrhea Check cage bedding • Respiratory • Breathing rate/depth Check for dyspnea, breath sounds (rales), tachypnea, • Discomfort • Mouse Grimace Scale Assess nose bulge, cheek bulge, ear angle, whisker change • Piloerection Whether there is stiff hair or bristling even when stroked • Other (compared to reference values) • Temperature Take average of two readings • Weight Measure weight
(§1) Grip strength was evaluated by means of a measurement of grip strength called the grip test, using a muscle strength measuring device (Muromachi Kikai, MK-380S). Specifically, the mouse was made to grasp a mesh made of wire (wire mesh) with its front and back legs, and its tail was pulled back horizontally little by little until the mouse released the wire mesh. The maximum muscle strength at that time was measured.
The above model mice were given 307.2 mg/kg/day of L-carbocysteine in drinking water for 23 weeks starting at the age of 49 weeks, and frailty index test was performed as in Example 2-5 above to confirm age-related frailty and the like.

model mice (C57BL/6J) [5] = assay: Grip test with muscle strength measuring device (MK-380S); assay type: in vivo, mouse; details: oral 1000 mg/kg/day from 50 to 81 weeks of age; FIG. 19
Procedure: as §1

aged mice [6] = assay: Muscle mass in aged mice, with or without exercise; assay type: in vivo, mouse
[7] = mice administered ambroxol hydrochloride, FIG. 9
[8] = aged mice administered L-ethylcysteine hydrochloride, FIG. 2

Q: For `Nc1c(Br)cc(Br)cc1CNC1CCC(O)CC1` (stereo not shown) [Ambroxol hydrochloride, ambroxol hydrochloride], which “muscle strength (endurance) by treadmill test” value (aged mice (C57BL/6J); oral 9.21 mg/kg/day from 50 to 77 weeks of age, measured at 77 weeks, FIG. 7) is on record?
A: The value was “increase in muscle strength”.

Q: What about the “changes in body weight or behavioral abnormalities during administration” value ([1]; oral 9.21 mg/kg/day, 50 to 77 weeks of age) of the same molecule?
A: The value was “no significant changes in body weight or behavioral abnormalities”.

Q: What about the “number of genes with decreased expression in muscle” value [2, 7] of the same molecule?
A: The value was 204 genes.

Q: And the “number of genes with increased expression in muscle” value [2, 7]?
A: The value was 164 genes.

Q: And the “CFC Freezing scores / cognitive performance” value (aged mice [3])?
A: The value was “improved CFC Freezing scores and increased cognitive performance”.

Q: And the “number of genes with decreased expression in C2C12 cells” value (C2C12 cells)?
A: The value was 54 genes.

Q: And the “number of genes with increased expression in C2C12 cells” value (C2C12 cells)?
A: The value was 53 genes.

Q: What about the “frailty index: coat condition” value (model mice (C57BL/6J) [4]; oral 1000 mg/kg/day from 50 to 81 weeks of age) of the same molecule?
A: Its value is “improved”.

Q: What about the “frailty index: skin condition (hair, skin)” value (model mice (C57BL/6J) [4]; oral 1000 mg/kg/day from 50 to 81 weeks of age, FIG. 18) of the same molecule?
A: The value was “improved”.

Q: And the “frailty index: osteoporosis (physical/musculoskeletal)” value (model mice (C57BL/6J) [4]; oral 1000 mg/kg/day from 50 to 81 weeks of age, FIG. 20)?
A: Its value is “improved”.

Q: And the “muscle strength (grip strength)” value (model mice (C57BL/6J) [5])?
A: Its value is “improved”.

Q: With `N[C@@H](CSCC(=O)O)C(=O)O` [L-carbocysteine] as the molecule, how does the “frailty index: dermatitis” value (model mice (C57BL/6J) [4]; 307.2 mg/kg/day in drinking water for 23 weeks from 49 weeks of age) read?
A: The value was “improves”.

Q: And the “frailty index: alopecia” value (model mice (C57BL/6J) [4]; 307.2 mg/kg/day in drinking water for 23 weeks from 49 weeks of age, FIG. 22)?
A: Its value is “improves”.

Q: And the “frailty index: fur color loss (gray hair)” value (model mice (C57BL/6J) [4]; 307.2 mg/kg/day in drinking water for 23 weeks from 49 weeks of age, FIG. 23)?
A: Its value is “improves”.

Q: And the “frailty index: physical condition score (bone and muscle)” value (model mice (C57BL/6J) [4]; 307.2 mg/kg/day in drinking water for 23 weeks from 49 weeks of age, FIG. 25)?
A: The value was “improvement in physical condition”.

Q: What about the “total score of the frailty index test” value (model mice (C57BL/6J) [4]; 307.2 mg/kg/day in drinking water for 23 weeks from 49 weeks of age, FIG. 26) of the same molecule?
A: Its value is “improvement in the total value”.

Q: Which “muscle strength (endurance) by treadmill test” value (aged mice (C57BL/6J); oral 1000 mg/kg/day from 40 to 79 weeks of age, measured at 79 weeks, FIG. 1) does the source give for `CCOC(=O)[C@@H](N)CS` [L-ethylcysteine hydrochloride] here?
A: The value was “increase in muscle strength”.

Q: And the “changes in body weight or behavioral abnormalities during administration” value ([1]; oral 1000 mg/kg/day, 40 to 79 weeks of age)?
A: Its value is “no significant changes in body weight or behavioral abnormalities”.

Q: What about the “muscle mass in aged mice” value (aged mice [6]; administration alone) of the same molecule?
A: The value was “increased muscle mass”.

Q: What about the “muscle mass in aged mice” value (aged mice [6]; administration in combination with exercise) of the same molecule?
A: Its value is “significantly restored muscle mass”.

Q: And the “number of genes with decreased expression in muscle” value [2, 8]?
A: Its value is 92 genes.

Q: And the “number of genes with increased expression in muscle” value [2, 8]?
A: The value was 158 genes.
